{"source": "patent US20220202771A1", "about": "“Antidepressants for the Treatment or Prevention of Memory Loss and/or Cognitive Decline or Dysfunction in Aging” (UNIVERSITY OF NORTH TEXAS HEALTH SCIENCE CENTER AT FORT …, priority 2019, published 2022)", "key": {"[1]": {"tested_on": "individuals with a diagnosis of MCI with DepE scores >=2", "conditions": "4 months duloxetine 30-60 mg/day, n=16 participants in the trial", "procedure": "Treatment duration was 4 months of duloxetine versus placebo. The initial dosage consisted of 30 mg/day duloxetine or placebo; after two weeks, dosage was increased to 60 mg/day. Dosage during the last two weeks of the 4-month study was reduced to 30 mg/day. […] In this study, the inventors recruited n=16 participants with clinical diagnosis of amnestic MCI (single or multi-domain). N=14 subjects enrolled were of Mexican American ethnicity."}, "[2]": {"tested_on": "individuals with a diagnosis of MCI with elevated DepE scores", "conditions": "treatment group, follow-up after 4 months", "description": "(§1) Next, the inventors conducted an investigator-initiated clinical trial (NCT02590874). […] Treatment duration was 4 months of duloxetine versus placebo. The initial dosage consisted of 30 mg/day duloxetine or placebo; after two weeks, dosage was increased to 60 mg/day. Dosage during the last two weeks of the 4-month study was reduced to 30 mg/day. Secondary endpoints of change in Repeatable Battery for the Assessment of Neuropsychological Status (RBANS) memory scores from baseline to study completion were analyzed. In this study, the inventors recruited n=16 participants with clinical diagnosis of amnestic MCI (single or multi-domain).\nFasting blood samples were collected at baseline and follow-up. Several plasma biomarkers were assessed to determine neurodegeneration over treatment duration: Neurofilament light (NfL)(FIG. 6), Tau (FIG. 5), Aβ40 (FIG. 4) and Aβ42 (FIG. 3)."}, "[3]": {"tested_on": "individuals with a diagnosis of MCI with DepE scores >=2", "description": "as §1"}, "[4]": {"conditions": "Baseline, amnestic MCI participants, duloxetine group before treatment"}, "[5]": {"conditions": "Follow-up, 4 months treatment, 30 mg/day then 60 mg/day, last two weeks 30 mg/day, *p < .05"}}, "note": "Counter-ions that a name gives are not always drawn. Like-named read-outs stand apart in the source and are kept apart here.", "data": [{"smiles": "CNCC[C@H](Oc1cccc2ccccc12)c1cccs1", "note": "[Duloxetine, N-methyl-γ-(1-naphthalenyloxy)-2-thiopropanamine hydrochloride]", "values": [{"measurement": "Serious Adverse Effects (SAEs)", "setting": "[1]", "value": "no Serious Adverse Effects (SAEs) were identified"}, {"measurement": "markers of neurodegeneration (NfL, Tau, Aβ40, Aβ42) at follow-up", "setting": "[2]; MCI cases with elevated DepE scores", "value": "primarily stable"}, {"measurement": "plasma Aβ42, baseline versus follow-up", "setting": "[2]; placebo group showed significant increase, FIG. 3", "value": "no significant differences"}, {"measurement": "plasma Aβ40, baseline versus follow-up", "setting": "[2]; placebo group showed significant increase, FIG. 4", "value": "no significant differences"}, {"measurement": "RBANS Delayed Memory", "setting": "[3]; [4]", "value": "76.63(11.01)"}, {"measurement": "RBANS Immediate Memory", "setting": "[3]; [4]", "value": "74.62(11.17)"}, {"measurement": "RBANS Total", "setting": "[3]; [4]", "value": "72.37(5.12)"}, {"measurement": "RBANS Delayed Memory", "setting": "[3]; [5]", "value": "91.50(6.98)*"}, {"measurement": "RBANS Immediate Memory", "setting": "[3]; [5]", "value": "88.75(11.43)*"}, {"measurement": "RBANS Total", "setting": "[3]; [5]", "value": "80.37(5.31)*"}, {"measurement": "effect on memory abilities", "setting": "[3]; MCI patients elevated in the depressive endophenotype, summary statement of the clinical trial", "value": "significant benefit"}, {"measurement": "change in RBANS Delayed Memory scores over treatment duration", "setting": "[3]; treatment group, 4 months, no significant change in the placebo group (p<0.05), FIG. 2", "value": "significant improvement"}]}]}
